In US11377441B2, “Covalent inhibitors of KRAS” (Araxes Pharma LLC, priority 2017, dated 2022) one finds Binding % data, which are given here for 15 molecules.

The target in the test is T1, KRAS G12C 1-169, his-tagged protein, GDP-loaded (Homo sapiens, UniProt P01116, G12C).
T1 construct: KRAS G12C 1-169, his-tagged protein, GDP-loaded
Nature of the test: Biochemical assay: covalent modification of KRAS G12C measured by mass spectrometry (RapidFire/TOF or Q-Exactive). The format is binding. The note with it: covalent binding to (modification of) KRAS G12C after a ten minute incubation period. The essentials: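 GDP-loaded KRAS G12C 1-169 (his-tagged) at 2 μM or 0.5 μM in 20 mM Hepes, 150 mM NaCl, 1 mM MgCl2, incubated with compound at 100, 30 or 10 μM at room temperature for 10 min, 30 min, 2 h or 24 h, then quenched with formic acid. Intact-protein LC-MS, deconvolved; percent modification from modified versus unmodified protein.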

Take `C=CC(=O)N1C[C@H](C)N(c2nc(N3CC(N(C)C)C3)nc3c(F)c(-c4c(C)ccc5[nH]nc(NCC)c45)c(Cl)cc23)C[C@H]1C` [Compound 46, 1-((2R,5S)-4-(6-chloro-2-(3-(dimethylamino)azetidin-1-yl)-7-(3-(ethylamino)-5-methyl-1H-indazol-4-yl)-8-fluoroquinazolin-4-yl)-2,5-dimethylpiperazin-1-yl)prop-2-en-1-one]: the Binding % entry is listed as “++ (++ indicates binding activity from 50 to 80%)”. As to `C=CC(=O)N1C2CCC1CN(c1nc(N3CC(N(C)C)C3)nc3c(F)c(-c4c(C)ccc5[nH]nc(N)c45)c(Cl)cc13)C2` [Compound 47, 1-((1R,5S)-3-(7-(3-amino-5-methyl-1H-indazol-4-yl)-6-chloro-2-(3-(dimethylamino)azetidin-1-yl)-8-fluoroquinazolin-4-yl)-3,8-diazabicyclo[3.2.1]oc-tan-8-yl)prop-2-en-1-one], the Binding % entry was “++ (++ indicates binding activity from 50 to 80%)”. The entry for `C=CC(=O)N1CCN(c2nc(N3CC(N(C)C)C3)nc3c(F)c(-c4c(C)ccc5[nH]nc(N)c45)c(Cl)cc23)[C@@H](C)C1` [Compound 48, 1-((3S)-4-(7-(3-amino-5-methyl-1H-indazol-4-yl)-6-chloro-2-(3-(dimethylamino)azetidin-1-yl)-8-fluoroquinazolin-4-yl)-3-methylpiperazin-1-yl)prop-2-en-1-one] is “+++ (+++ indicates binding activity greater than 80%)”. In the case of `C=CC(=O)N1C[C@H](C)N(c2nc(OCCN3CCCC3)nc3c(F)c(-c4c(C)ccc5[nH]nc(N)c45)c(Cl)cc23)C[C@H]1C` [Compound 49, 1-((2R,5S)-4-(7-(3-amino-5-methyl-1H-indazol-4-yl)-6-chloro-8-fluoro-2-(2-(pyrrolidin-1-yl)ethoxy)quinazolin-4-yl)-2,5-dimethylpiperazin-1-yl)prop-2-en-1-one] it was “+++ (+++ indicates binding activity greater than 80%)”; in that of `C=CC(=O)N1C[C@H](C)N(c2nc(N3CC(N(C)C)C3)nc3c(F)c(-c4c(C)ccc5onc(N)c45)c(Cl)cc23)C[C@H]1C` [Compound 50, 1-((2R,5S)-4-(7-(3-amino-5-methylbenzo[d]isoxazol-4-yl)-6-chloro-2-(3-(dimethylamino)azetidin-1-yl)-8-fluoroquinazolin-4-yl)-2,5-dimethylpiperazin-1-yl)prop-2-en-1-one], “+++ (+++ indicates binding activity greater than 80%)”. On to `C=CC(=O)N1C[C@H](C)N(c2nc(N3CC(N(C)C)C3)nc3c(F)c(-c4c(C)ccc5nc(C)[nH]c45)c(Cl)cc23)C[C@H]1C` [Compound 52, 1-((2R,5S)-4-(6-chloro-7-(2,6-dimethyl-1H-benzo[d]imidazol-7-yl)-2-(3-(dimethylamino)azetidin-1-yl)-8-fluoroquinazolin-4-yl)-2,5-dimethylpiperazin-1-yl)prop-2-en-1-one], for which the Binding % entry is “++ (++ indicates binding activity from 50 to 80%)”. For `C=CC(=O)N1C[C@H](C)N(c2nc(N3CC(N(C)C)C3)nc3c(F)c(-c4c(C)cnc5[nH]ncc45)c(Cl)cc23)C[C@H]1C` [Compound 56, 1-((2R,5S)-4-(6-chloro-2-(3-(dimethylamino)azetidin-1-yl)-8-fluoro-7-(5-methyl-1H-pyrazolo[3,4-b]pyridin-4-yl)quinazolin-4-yl)-2,5-dimethylpiperazin-1-yl)prop-2-en-1-one], the Binding % entry was “+ (+ indicates binding activity greater than 0% and up to 50%)”. Turning to `C=CC(=O)N1C[C@H](C)N(c2nc(N3CC(N(C)C)C3)nc3c(F)c(-c4c(C)ccc5[nH]nc(C6CC6)c45)c(Cl)cc23)C[C@H]1C` [Compound 57, 1-((2R,5S)-4-(6-chloro-7-(3-cyclopropyl-5-methyl-1H-indazol-4-yl)-2-(3-(dimethylamino)azetidin-1-yl)-8-fluoroquinazolin-4-yl)-2,5-dimethylpiperazin-1-yl)prop-2-en-1-one], the Binding % result is reported as “+++ (+++ indicates binding activity greater than 80%)”. In the case of `C=CC(=O)N1C[C@H](C)N(c2nc(NCCC(=O)N3CCCC3)nc3c(F)c(-c4c(C)ccc5[nH]nc(N)c45)c(Cl)cc23)C[C@H]1C` [Compound 60, 1-((2R,5S)-4-(7-(3-amino-5-methyl-1H-indazol-4-yl)-6-chloro-8-fluoro-2-(3-oxo-3-(pyrrolidin-1-yl)propylamino)quina-zolin-4-yl)-2,5-dimethylpiperazin-1-yl)prop-2-en-1-one], the Binding % entry was “+++ (+++ indicates binding activity greater than 80%)”. On to `C=CC(=O)N1C[C@H](C)N(c2nc(N3CC(N(C)C)C3)nc3c(F)c(-c4c(C)ccc5[nH]nc(CC)c45)c(Cl)cc23)C[C@H]1C` [Compound 61, 1-((2R,5S)-4-(6-chloro-2-(3-(dimethylamino)azetidin-1-yl)-7-(3-ethyl-5-methyl-1H-indazol-4-yl)-8-fluoroquinazolin-4-yl)-2,5-dimethylpiperazin-1-yl)prop-2-en-1-one], for which the Binding % entry is recorded as “+++ (+++ indicates binding activity greater than 80%)”. With `C=CC(=O)N1C[C@H](C)N(c2nc(NCCC(=O)N(C)C)nc3c(F)c(-c4c(C)ccc5[nH]nc(N)c45)c(Cl)cc23)C[C@H]1C` [Compound 62, 3-(4-((2S,5R)-4-acryloyl-2,5-dimethylpiperazin-1-yl)-7-(3-amino-5-methyl-1H-indazol-4-yl)-6-chloro-8-fluoroquinazolin-2-ylamino)-N,N-dimethylpropanamide], the Binding % result is “+++ (+++ indicates binding activity greater than 80%)”.

`C=CC(=O)N1C[C@H](C)N(c2nc(NCCCN(C)C)nc3c(F)c(-c4c(C)ccc5[nH]nc(N)c45)c(Cl)cc23)C[C@H]1C` [Compound 63, 1-((2R,5S)-4-(7-(3-amino-5-methyl-1H-indazol-4-yl)-6-chloro-2-(3-(dimethylamino)propyl-amino)-8-fluoroquinazolin-4-yl)-2,5-dimethylpiperazin-1-yl)prop-2-en-1-one]: the Binding % result is given as “++ (++ indicates binding activity from 50 to 80%)”. For `C=CC(=O)N1C[C@H](C)N(c2nc(NCCC(=O)N(C)C)nc3c(F)c(-c4c(C)ccc5onc(N)c45)c(Cl)cc23)C[C@H]1C` [Compound 64, 3-(4-((2S,5R)-4-acryloyl-2,5-dimethylpiperazin-1-yl)-7-(3-amino-5-methylbenzo[d]isoxa-zol-4-yl)-6-chloro-8-fluoroquinazolin-2-ylamino)-N,N-dimethylpropanamide], the Binding % result is reported as “++ (++ indicates binding activity from 50 to 80%)”. In the case of `C=CC(=O)N1C[C@H](C)N(c2nc(N3CC(N(C)C)C3)nc3c(F)c(-c4c(C)ccc5c(O)n[nH]c45)c(Cl)cc23)C[C@H]1C` [Compound 65, 1-((2R,5S)-4-(6-chloro-2-(3-(dimethylamino)azetidin-1-yl)-8-fluoro-7-(3-hydroxy-6-methyl-1H-indazol-7-yl)quinazolin-4-yl)-2,5-dimethylpiperazin-1-yl)prop-2-en-1-one] it was “+ (+ indicates binding activity greater than 0% and up to 50%)”. Turning to `C=CC(=O)N1C[C@H](C)N(c2nc(Nc3cnn(C)c3)nc3c(F)c(-c4c(C)ccc5[nH]nc(N)c45)c(Cl)cc23)C[C@H]1C` [Compound 68, 1-((2R,5S)-4-(7-(3-amino-5-methyl-1H-indazol-4-yl)-6-chloro-8-fluoro-2-(1-methyl-1H-pyrazol-4-ylamino)quinazolin-4-yl)-2,5-dimethylpiperazin-1-yl)prop-2-en-1-one], the Binding % entry is “+++ (+++ indicates binding activity greater than 80%)”.
